Assay results published in patent publication US20250188043A1 (ReproNovo SA, priority 2023, published 2025).

What was measured:
Format in all cases: physicochemical
[1] = Long term storage stability of crystalline Form A leflutrozole
Protocol: The test for determination of the amount of related substance impurities uses reverse phase HPLC analysis with UV detection (230 nm). The solvents are acetonitrile/water/diammonium hydrogen phosphate buffer/O-phosphirc acid 85%. The column is Macherey Nagel, Nucleosil 100 C18HD (length=150 mm, internal diameter 3.0 mm) or equivalent L1 USP HPLC Columns.
Stability data under accelerated conditions are for up to 6 months at 40° C./75% RH and up to 3 months at 50° C. […].
Packaging A: Double low density polyethylene bags in fiber drugms; water permeation <14.0 mg/day/L. Packaging D: Brown glass bottles type C sealed in triple laminated foil bags or quadruple laminated foil bags of type B; water permeation <0.5 mg/day/L. Packaging H: Double polythene bags, sealed, in 400 mL mini-metallic drugs; water permeation 5 mg/day/L. Packaging J: HDPE bottles from Nalgene (30 mL) with polypropylene screw caps and sealed in alubags of type B. Packaging K: Polyethylene bag containing the drug inside quadruple laminated foil bags; water permeation <0.5 mg/day/L.

[2] = Stability program: degradation product formation and appearance; details: for DSC onset after stress / DSC ΔH after stress: Bulk (DSC)
Excerpt: The mixtures of excipients used for this study are as follows: mixture 1 (maltodextrin, microcrystalline cellulose, sodium carboxymethylcellulose, Aerosil 200, Cutina HR; 64:29:5:0.5:1.5 ratio), mixture 2 (microcrystalline cellulose, spray dried lactose, sodium carboxylmethyl starch, Aerosil 200, magnesium stearate; 20:73.5:5:0.5:1 ratio), and mixture 3 (microcrystalline cellulose, mannitol, crospovidone, magnesium stearate; 15:79.5:4:1.5 ratio). The buffered solutions are aqueous.

[3] = Effect of oxygen (high oxygen content air or N2); details: high oxygen content air or inert atmosphere (N2)
Excerpt: Oxidative degradation of leflutrozole is the primary pathway by which leflutrozole degrades outside of the synthesis process. Defluorination and oxidation that coincides with removal of the […] moiety yields the compound of Formula IV.

[4] = 36 months, 25° C., double polyethylene liner and black polyethylene keg
[5] = more than 36 months at room temperature
[6] = 2% (or 5%) solution or suspension, 1 day, room temperature, HPMC Cellulose 4000 0.5%
[7] = Solid-state, 1 week, 50° C., 75% RH, 1% in mixture 1
[8] = Solid-state, 1 week, 50° C., 75% RH, 1% in mixture 2
[9] = Solid-state, 1 week, 50° C., 75% RH, 1% in mixture 3
[10] = Solid-state, 1 week, 50° C., tight container, 1% in mixture 1
[11] = Solid-state, 1 week, 50° C., tight container, 1% in mixture 2
[12] = Solid-state, 1 week, 50° C., tight container, 1% in mixture 3
[13] = Solid-state, 1 week, 80° C., 75% RH
[14] = Solid-state, 1 week, 80° C., 75% RH, Bulk (HPLC)
[15] = Solid-state, 1 week, 80° C., tight container
[16] = Solid-state, 1 week, 80° C., tight container, Bulk (HPLC)
[17] = Xenon light (approx. 1200 kLuxh)
[18] = Xenon light (approx. 1200 kLuxh), Bulk (HPLC)

N#Cc1ccc(C(F)(c2ccc(C#N)cc2)n2cncn2)cc1 [Form A leflutrozole, 4-[(4-cyanophenyl)-fluoro-(1,2,4-triazol-1-yl)methyl]benzonitrile]
Combined related substance impurities ([1]; 5° C. ± 3° C. in packaging D, Initial): 0.60%
Combined related substance impurities ([1]; 25° C./60% RH in packaging K, 3 months): 0.60%
Combined related substance impurities ([1]; 25° C./60% RH in packaging K, Initial): 0.60%
impurity Q2 (substance of unknown structure) [1, 4]: 0.11 % w/w
impurity compound of formula (III) [1, 4]: 0.14 % w/w
Combined related substance impurities ([1]; 40° C./75% RH in packaging A, 3 months): 0.60%
Combined related substance impurities ([1]; 40° C./75% RH in packaging A, Initial): 0.60%
Combined related substance impurities ([1]; 40° C./75% RH in packaging D, Initial): 0.60%
Combined related substance impurities ([1]; 40° C./75% RH in packaging K, 6 months): 0.60%
Combined related substance impurities ([1]; 40° C./75% RH in packaging K, Initial): 0.60%
Combined related substance impurities ([1]; 50° C./≤30% RH in packaging D, Initial): 0.60%
Combined related substance impurities ([1]; 50° C./≤30% RH in packaging K, Initial): 0.60%
stability of drug substance on storage (in words) ([1]; long term and accelerated storage conditions): very stable under all storage conditions
individual impurity developed [1, 5]: ≤ 0.8 % HPLC peak area
total amount of impurities [1, 5]: ≤ 2.0 % of the total HPLC peak area
time stable at room temperature ([1]; room temperature): more than 36 months
Combined related substance impurities ([1]; −20° C. ± 5° C./ambient RH in packaging D, Initial): 0.60%
Combined related substance impurities ([1]; −20° C. ± 5° C./ambient RH in packaging K, Initial): 0.60%
CL (appearance, color) ([2]; 0.1% solution or suspension, 1 week, 80° C., Ethanol): No change
CL (appearance, color) ([2]; 0.1% solution or suspension, 1 week, 80° C., Methanol): No change
CL (appearance, color) ([2]; 0.1% solution or suspension, 1 week, 80° C., Water): No change, suspension formed
CL (appearance, color) ([2]; 0.1% solution or suspension, 1 week, 80° C., pH 1): No change, suspension formed
CL (appearance, color) ([2]; 0.1% solution or suspension, 1 week, 80° C., pH 3): No change, suspension formed
form change on storage ([2]; 1 week at 80° C. and 75% relative humidity): no detectable form change
CL (appearance, color) ([2]; 2% (or 5%) solution or suspension, 1 day, room temperature, 0.5% CMC): suspension formed
CL (appearance, color) [2, 6]: suspension formed
DP (degradation product) [2, 6]: 0.0%
CL (appearance, color) [2, 7]: No change
DP (degradation product) [2, 7]: 0.5%
CL (appearance, color) [2, 8]: No change
DP (degradation product) [2, 8]: 0.1%
CL (appearance, color) [2, 9]: No change
DP (degradation product) [2, 9]: 0.4%
CL (appearance, color) [2, 10]: No change
DP (degradation product) [2, 10]: 0.0%
CL (appearance, color) [2, 11]: No change
DP (degradation product) [2, 11]: 0.0%
CL (appearance, color) [2, 12]: No change
DP (degradation product) [2, 12]: 0.1%
DSC onset after stress [2, 13]: 168 °C onset;
DSC ΔH after stress [2, 13]: ΔH = 110.3 J/g
CL (appearance, color) [2, 14]: No change
DP (degradation product) [2, 14]: 0.0%
DSC onset after stress [2, 15]: 168 °C onset;
DSC ΔH after stress [2, 15]: ΔH = 114 J/g
CL (appearance, color) [2, 16]: No change
DP (degradation product) [2, 16]: 0.0%
DSC onset after stress [2, 17]: 169 °C onset;
DSC ΔH after stress [2, 17]: ΔH = 112.6 J/g
CL (appearance, color) [2, 18]: No change
DP (degradation product) [2, 18]: 0.0%
degradation on exposure to xenon lamp (in words) ([2]; xenon lamp): does not degrade
degradation on exposure to air (in words) [3]: does not degrade readily when exposed to air
